These are literature values, as cited in patent US12516015B2 (AMALIVE LIMITED, priority 2009, dated 2026).

For orientation: pKa means the negative logarithm of the acid dissociation constant.

For `O=C(O)Cc1ccccc1` [phenyl acetic acid], the pKa is given as around 4.28.
